“Also recorded” adds a separate entry of the source.
Key:
Type in all cases: in vivo
[1] = tested on: Plasmodium berghei parasite in Anopheles stephensi mosquitoes; test: Malaria parasite growth in the body of vector mosquitoes fed with a rare sugar (ookinete, oocyst, sporozoite counts); settings: for formation of ookinetes in the midgut of the mosquito: 100 mM rare sugar + 440 mM D-fructose fed, one day after sucking infected blood, vs control
Method: In order to block malaria transmission, a vector mosquito is fed with a feed containing a rare sugar in advance, and then made to suck blood of a mouse infected with Plasmodium berghei parasite, whereby garaetocytes are ingested into the midgut of the vector mosquito. Thereafter, the feed containing a rare sugar is continuously given to the mosquito, and at the time point when one day has passed after the gametocytes are ingested into the body, the number of ookinetes in the midgut is evaluated, and then, the number of oocysts on the midgut after 10 days, the number of sporozoites in the midgut and the number of sporozoites in the salivary glands after 18 days are evaluated. In this manner, the malaria parasite growth inhibitory effect of the rare sugar was examined.
First, three groups, each of which includes about 200 Anopheles stephensi mosquitoes, were prepared, and in a first group, a mixed aqueous solution of 100 mM D-allose and 440 mM D-fructose was fed, in a second group, a mixed aqueous solution of 100 mM B-psicose and 440 mM D-fructose was fed, and in a third group, an aqueous solution of 440 mM D-fructose was fed, which was used as a control. Each of these aqueous solutions was placed in an Erlenmeyer flask, and a lower end portion of a filter paper was dipped in the aqueous solution, and Anopheles stephensi mosquitoes were fed with the aqueous solution absorbed in the filter paper.
Further, red blood cells infected with Plasmodium berghei parasite were intraperitoneally administered to BALB/c mice (6 weeks of age, female), whereby mice infected with malaria were prepared.
Anopheles stephensi mosquitoes in each group were made to suck each aqueous solution for 3 days, and thereafter, made to suck blood of the mice infected with Plasmodium berghei malaria, whereby the malaria parasites were incorporated in the body of Anopheles stephensi mosquitoes. Subsequently, while continuously giving the fructose aqueous solution containing a rare sugar or the aqueous solution containing only fructose, the number of parasites in the body of the mosquitoes was evaluated at the below-mentioned timings. That is, 24 hours after sucking infected blood, the number of ookinetes in the midgut was counted, the number of oocysts on the midgut was counted after 10 days, and the number of sporozoites in the midgut and in the salivary glands were counted after 18 days, and the results of the three groups were compared.
The D-allose concentration dependence for malaria parasite growth blocking effect of a rare sugar was examined. Four groups of Anopheles stephensi mosquitoes were prepared, and in a first group to a third group, mixed aqueous solutions of 10 mM, 30 mM, or 100 mM D-allose and 440 mM D-fructose were fed, respectively, and in a fourth group, an aqueous solution of 440 mM D-fructose was fed. In each of these aqueous solutions, a lower end portion of a filter paper was dipped, and Anopheles stephensi mosquitoes were fed with the aqueous solution absorbed in the filter paper.
Anopheles stephensi mosquitoes in each group were made to suck each aqueous solution for 3 days, and thereafter, made to suck blood of the mice infected with Plasmodium berghei malaria, whereby the malaria parasites were incorporated in the body of Anopheles stephensi mosquitoes. Thereafter, while continuously giving the aqueous solution containing a rare sugar or the aqueous solution containing only fructose, the number of parasites in the body of the mosquitoes was counted at respective timings. That is, 24 hours after sucking infected blood, the number of ookinetes in the midgut, was counted, the number of oocysts on the midgut was counted after 10 days, and the number of sporozoites in the midgut and in the salivary glands were counted after 18 days, and the results of the four groups were compared. […]

[2] = tested on: Plasmodium berghei transmission from Anopheles stephensi mosquitoes to BALB/c mice; test: Infectivity to mice: malaria transmission by rare-sugar-fed mosquitoes sucking blood of BALB/c mice; settings: for onset of malaria in mice: compared with 10 mM group and fructose single feeding group
Excerpt: 20 days after sucking blood of an infected mouse, each group of mosquitoes which had been fed with a rare sugar (D-allose or D-psicose) and a control group of mosquitoes which had not been fed with a rare sugar were made to suck blood of mice, and the infectivity of malaria in mice was examined. As a result, in a group in which the mosquitoes fed with D-allose were made to suck blood, malaria infection was not observed in about 70% of mice, and the infection inhibitory effect of a rare sugar was confirmed.
(§1) Each of the Anopheles stephensi mosquitoes in the three groups fed with the feed for 20 days in the above Example 1 was made to suck blood of the BALB/c mice (6 weeks of age, female). In each group, 50 mosquitoes were made to suck blood of 5 mice for 1 minute 5 times for each mouse. Every day from 2 days after sucking blood, a smear preparation was prepared from a small amount of blood collected from the tail of each mouse, followed by Giemsa staining, and thereafter, the presence or absence of parasites was examined with a microscope. In some mice, parasites were confirmed 3 days after sucking blood, and thereafter, the incidence rate increased, however, whether or not malaria was developed was determined based on the presence or absence of parasites at the time point of 14 days after sucking blood in the end.
Each of the Anopheles stephensi mosquitoes in the four groups fed with the feed for 20 days in the above Example 3 was made to suck blood of the BALE/c mice (6 weeks of age, female). In each group, 50 mosquitoes were made to suck blood of 5 mice for 1 minute 5 times for each mouse. Every day from 2 days after sucking blood, a smear preparation was prepared from a small amount of blood collected from the tail of each mouse, followed by Giemsa staining, and thereafter, the presence or absence of parasites was examined with a microscope. Whether or not malaria was developed was determined at the time point of 14 days after sucking blood. […] Also in the 30 mM D-allose feeding group, the incidence rate was 100%, however, malaria was developed one day later as compared with the 10 mM D-ailose feeding group and the fructose single feeding group.
as §1, with “Example 5” for “Example 1”, “the BALE/c” for “the BALB/c”

[3] = tested on: Plasmodium berghei parasite in Anopheles stephensi mosquitoes; test: Malaria parasite growth in the body of vector mosquitoes fed with a rare sugar (ookinete, oocyst, sporozoite counts); settings: Example 5, D-allose 100 mM + 440 mM D-fructose or Rare Sugar Sweet diluted 2.3 times
[4] = Example 1, 100 mM rare sugar + 440 mM D-fructose, 10 days after sucking blood
[5] = Example 1, 100 mM rare sugar + 440 mM D-fructose, 18 days after sucking blood
[6] = Example 2, mosquitoes fed 100 mM rare sugar + Fructose 440 mM for 20 days, determined 14 days after sucking blood
[7] = Examples 1 and 2, 100 mM rare sugar + 440 mM D-fructose

## O=C[C@H](O)[C@H](O)[C@H](O)[C@H](O)CO [D-allose]
[1]; Example 1
  formation of ookinetes in the midgut of the mosquito: not suppressed; also recorded: slight
[1]; [4]
  formation of oocysts on the midgut: suppressed
  number of oocysts suppressed as compared with the control group: 95%
[1]; [5]
  formation of sporozoites in the midgut: suppressed
  formation of sporozoites in the salivary glands: suppressed
  number of sporozoites in the midgut suppressed as compared with the control group: 98.7%
  number of sporozoites in the salivary gland suppressed as compared with the control group: 98.5%
[1]; Example 3, 30 mM D-allose feeding group, 18 days after sucking blood
  number of sporozoites in the salivary glands: significantly decreased
[1]; Example 3, D-allose 10 mM to 100 mM + 440 mM D-fructose, 10 days after sucking blood
  number of oocysts: suppressed in a D-allose concentration-dependent manner
[1]; Example 3, D-allose 10 mM to 100 mM + 440 mM D-fructose, one day after sucking blood
  growth into ookinetes in the midgut: suppressed in a concentration-dependent manner
[1]; Example 3, D-allose 100 mM + 440 mM D-fructose, 10 days after sucking blood
  growth of oocysts on the midgut: almost completely suppressed
[1]; Example 3, D-allose 100 mM + 440 mM D-fructose, 18 days after sucking blood
  formation of sporozoites (midgut and salivary glands): completely suppressed
[1]; Example 5, D-allose 100 mM + 440 mM D-fructose or Rare Sugar Sweet diluted 2.3 times, one day after sucking blood
  suppression of the formation of ookinetes in the midgut: slight
[2]; [6]
  Incidence rate after sucking blood (%) (mice which developed malaria/mice which had their blood sucked): 29%
[2]; Example 2, mosquitoes fed 100 mM rare sugar + Fructose 440 mM for 20 days, determined 14 days after sucking blood, listed as Allose
  Incidence rate after sucking blood (%) (mice which developed malaria/mice which had their blood sucked): 29 (2/7) %
[2]; Example 4, 30 mM D-allose feeding group, inferred from onset one day later
  number of sporozoites inoculated into the mice when having their blood sucked: about one-tenth
[2]; Example 4, 100 mM D-allose + D-fructose
  malaria transmission / development of malaria in mice: did not develop malaria
[2]; Example 4, 100 mM D-allose feeding group
  incidence rate suppressed: 100%
[2]; Example 4, Allose 10 mM + Fructose 440 mM, 14 days after sucking blood
  Incidence rate after sucking blood (%) (mice which developed malaria/mice which had their blood sucked): 100%
[2]; Example 4, Allose 10 mM + Fructose 440 mM, 14 days after sucking blood, listed as Allose
  Incidence rate after sucking blood (%) (mice which developed malaria/mice which had their blood sucked): 100 (5/5) %
[2]; Example 4, Allose 30 mM + Fructose 440 mM, 14 days after sucking blood
  Incidence rate after sucking blood (%) (mice which developed malaria/mice which had their blood sucked): 100%
[2]; Example 4, Allose 30 mM + Fructose 440 mM, 14 days after sucking blood, listed as Allose
  Incidence rate after sucking blood (%) (mice which developed malaria/mice which had their blood sucked): 100 (5/5) %
[2]; Example 4, Allose 30 mM + Fructose 440 mM
  onset of malaria in mice: one day later
[2]; Example 4, Allose 30 mM + Fructose 440 mM, listed as Allose
  onset of malaria in mice: The onset was delayed
[2]; Example 4, Allose 100 mM + Fructose 440 mM, 14 days after sucking blood
  Incidence rate after sucking blood (%) (mice which developed malaria/mice which had their blood sucked): 0 (0/5) %
[2]; Example 6, Allose 100 mM + Fructose 440 mM or Rare Sugar Sweet diluted 2.3 times, 14 days after sucking blood
  Incidence rate after sucking blood (%) (mice which developed malaria/mice which had their blood sucked): 0 (0/5) %
[2]; Example 6, D-allose 100 mM + D-fructose or Rare Sugar Sweet diluted 2.3 times
  malaria transmission (transmission-blocking effect): completely inhibited; also recorded: completely transmission-blocking effect
[2]; [7]
  malaria transmission (transmission-blocking effect): significantly suppressed; also recorded: completely blocks
[2]; mosquitoes fed with rare sugar, 20 days after sucking blood of an infected mouse
  mice in which malaria infection was not observed: about 70%
[3]; 10 days after sucking blood
  number of oocysts suppressed as compared with the control group: 100%
[3]; 18 days after sucking blood
  number of sporozoites in the midgut suppressed as compared with the control group: 100%
  number of sporozoites in the salivary glands suppressed: 100%

## O=C(CO)[C@H](O)[C@H](O)[C@H](O)CO [D-psicose]
[1]; Example 1
  formation of ookinetes in the midgut of the mosquito: suppressed to some extent; also recorded: somewhat suppressed
[1]; [4]
  formation of oocysts on the midgut: slightly promoted
[1]; [5]
  formation of sporozoites in the salivary glands: slightly exceeding that in the control
  number of sporozoites in the midgut suppressed as compared with the control group: about 60%
[2]; [6]
  Incidence rate after sucking blood (%) (mice which developed malaria/mice which had their blood sucked): 100%
[2]; Example 2, mosquitoes fed 100 mM rare sugar + Fructose 440 mM for 20 days, determined 14 days after sucking blood, listed as Psicose
  Incidence rate after sucking blood (%) (mice which developed malaria/mice which had their blood sucked): 100 (6/6) %
[2]; [7]
  malaria transmission (transmission-blocking effect): not observed

Source: patent US11324763B2, “Malaria transmission prevention agent having rare sugar as effective component thereof and malarial parasite growth regulating agent” (NATIONAL UNIVERSITY CORPORATION KAGAWA UNIVERSITY, priority 2014, dated 2022)
